The source made the active and inactive calls. No cut-off for these calls is given here.
Biological target: T1, Muscarinic acetylcholine receptor M1 (Homo sapiens) (UniProt P11229)
T1 sequence (whole entry): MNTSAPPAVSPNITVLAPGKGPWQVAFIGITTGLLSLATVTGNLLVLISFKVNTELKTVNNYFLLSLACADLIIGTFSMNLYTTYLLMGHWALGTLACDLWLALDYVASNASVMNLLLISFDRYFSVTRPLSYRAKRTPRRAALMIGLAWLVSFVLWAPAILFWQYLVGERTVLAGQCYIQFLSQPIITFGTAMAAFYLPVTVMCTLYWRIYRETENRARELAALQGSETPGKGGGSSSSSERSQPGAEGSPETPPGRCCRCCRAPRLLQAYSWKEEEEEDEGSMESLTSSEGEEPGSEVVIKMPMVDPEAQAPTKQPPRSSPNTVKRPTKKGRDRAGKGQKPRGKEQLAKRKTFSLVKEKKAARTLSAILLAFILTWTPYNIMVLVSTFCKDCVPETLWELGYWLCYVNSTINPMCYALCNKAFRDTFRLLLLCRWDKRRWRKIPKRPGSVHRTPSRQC
Test: Positive allosteric modulation of human muscarinic M1 receptor relative to acetylcholine

Emax [%]	SMILES
50	CN1CCC2(C1)C(=O)N(Cc1ccc(-c3cnn(C)c3)cc1F)c1ccccc12 (single isomer, unassigned) [listing 1 of 2 here]
59	CCN1CCC2(C1)C(=O)N(Cc1ccc(-c3cnn(C)c3)cc1F)c1ccccc12 (racemic)
41	CC(=O)N1CCC2(C1)C(=O)N(Cc1ccc(-c3cnn(C)c3)cc1F)c1ccccc12 (racemic)
69	Cn1cc(-c2ccc(CN3C(=O)C4(CCN(C5CCCC5)C4)c4ccccc43)c(F)c2)cn1 (single isomer, unassigned; 19g) [listing 1 of 2 here]
65	CN1CCC2(C1)C(=O)N(Cc1ccc(-c3cnn(C)c3)cc1F)c1ccccc12 (stereo in doubt; 18d) [listing 1 of 2 here]
41	Cn1cc(-c2ccc(CN3C(=O)C4(CCN(S(C)(=O)=O)C4)c4ccccc43)c(F)c2)cn1 (racemic)
57	Cn1cc(-c2ccc(CN3C(=O)C4(CCN(C5CCCC5)C4)c4ccccc43)c(F)c2)cn1 (racemic) [listing 1 of 2 here]
67	CN1CCC2(C1)C(=O)N(Cc1ccc(-c3cnn(C)c3)cc1F)c1ccccc12 (stereo in doubt; 19a) [listing 1 of 2 here]
33	Cn1cc(-c2ccc(CN3C(=O)C4(CCN(C5CCCC5)C4)c4ccccc43)c(F)c2)cn1 (single isomer, unassigned; 19h)
48	Cn1cc(-c2ccc(CN3C(=O)C4(CCN(C5CCC5)C4)c4ccccc43)c(F)c2)cn1 (racemic)
30	CC(C)N1CCC2(C1)C(=O)N(Cc1ccc(-c3cnn(C)c3)cc1F)c1ccccc12 (racemic)

The next lines start with the compound.

SMILES	Emax [%]
Cn1cc(-c2cc(F)c(CN3C(=O)C4(CCN(C5CCCC5)C4)c4ccccc43)c(F)c2)cn1 (stereo not drawn)	66
Cn1cc(-c2ccc(CN3C(=O)C4(CCN(C5CCCCC5)C4)c4ccccc43)c(F)c2)cn1 (racemic)	60
CN1CCCC12C(=O)N(Cc1ccc(-c3cnn(C)c3)cc1)c1ccccc12 (stereo not drawn)	53
Cn1cc(-c2ccc(CN3C(=O)C4(CCN(c5ncccn5)C4)c4ccccc43)c(F)c2)cn1 (racemic)	64
Cn1cc(-c2ccc(CN3C(=O)C(=O)c4ccccc43)c(F)c2)cn1	45
CN1CCC2(CCN(Cc3ccc(-c4cnn(C)c4)cc3F)C2=O)C1 (stereo not drawn)	28
Cn1cc(-c2ccc(CN3C(=O)C4(CCN(C5CCCC5)C4)c4ccccc43)cc2F)cn1 (stereo not drawn)	28
Cn1cc(-c2ccc(CN3C(=O)C4(CCN(C(=O)C5CCCCC5)C4)c4ccccc43)c(F)c2)cn1 (racemic)	50
Cc1nn(C)cc1-c1ccc(CN2C(=O)C3(CCN(C4CCCC4)C3)c3ccccc32)c(F)c1 (stereo not drawn)	41
Cn1cc(-c2ccc(CN3CC4(OCCO4)c4ccccc43)c(F)c2)cn1	43
Cn1cc(-c2ccc(CN3C(=O)C4(CCN(C5CCCC5)C4)c4ccccc43)c(F)c2F)cn1 (stereo not drawn)	43
Cn1cc(-c2cc(F)c(CN3C(=O)C4(CCN(C5CCCC5)C4)c4ccccc43)cc2F)cn1 (stereo not drawn)	51
Cn1cc(-c2ccc(CN3C(=O)C4(CCN(CC(F)F)C4)c4ccccc43)c(F)c2)cn1 (racemic)	52
Cn1cc(-c2ccc(CN3C(=O)C4(CCCO4)c4ccccc43)cc2)cn1 (stereo not drawn)	43
Cn1cc(-c2ccc(CN3C(=O)C4(CCN(C5CCCCCC5)C4)c4ccccc43)c(F)c2)cn1 (racemic)	50
Cn1cc(-c2ccc(CN3C(=O)C4(CCN(C(=O)C5CCC5)C4)c4ccccc43)c(F)c2)cn1 (racemic)	45
CN1CCC2(CC1)C(=O)N(Cc1ccc(-c3cnn(C)c3)cc1F)c1ccccc12	49
Cn1cc(-c2ccc(CN3C(=O)C4(CCN(C5CCCC5)C4)c4ccccc43)cc2)cn1 (stereo not drawn)	44
Cn1cc(-c2ccc(CN3C(=O)C4(CCNCC4)c4ccccc43)c(F)c2)cn1	29
Cn1cc(-c2ccc(CN3C(=O)C4(CCN(CCF)C4)c4ccccc43)c(F)c2)cn1 (racemic)	60
Cn1cc(-c2ccc(CN3C(=O)C4(OCCO4)c4ccccc43)c(F)c2)cn1	62

Biological target: T2, Muscarinic acetylcholine receptor M1 (Homo sapiens, UniProt P11229)
T2 sequence (P11229 whole entry): T1 sequence (whole entry)
Test: Positive allosteric modulation of human muscarinic M1 receptor

EC50 [µM]	pEC50	SMILES
3.2		CCN1CCC2(C1)C(=O)N(Cc1ccc(-c3cnn(C)c3)cc1F)c1ccccc12 (racemic)
> 10		CC(=O)N1CCC2(C1)C(=O)N(Cc1ccc(-c3cnn(C)c3)cc1F)c1ccccc12 (racemic)
> 10		Cn1cc(-c2ccc(CN3C(=O)C4(CCN(S(C)(=O)=O)C4)c4ccccc43)c(F)c2)cn1 (racemic)
3.2		CN1CCC2(C1)C(=O)N(Cc1ccc(-c3cnn(C)c3)cc1F)c1ccccc12 (stereo in doubt; 18d) [listing 2 of 2 here]
2.9		CN1CCC2(C1)C(=O)N(Cc1ccc(-c3cnn(C)c3)cc1F)c1ccccc12 (single isomer, unassigned) [listing 2 of 2 here]
1.6		Cn1cc(-c2ccc(CN3C(=O)C4(CCN(C5CCCC5)C4)c4ccccc43)c(F)c2)cn1 (single isomer, unassigned; 19g) [listing 2 of 2 here]
3.1		Cn1cc(-c2ccc(CN3C(=O)C4(CCN(C5CCCC5)C4)c4ccccc43)c(F)c2)cn1 (racemic) [listing 2 of 2 here]
2.9		CN1CCC2(C1)C(=O)N(Cc1ccc(-c3cnn(C)c3)cc1F)c1ccccc12 (stereo in doubt; 19a) [listing 2 of 2 here]
> 10		Cn1cc(-c2ccc(CN3C(=O)C4(CCN(C5CCC5)C4)c4ccccc43)c(F)c2)cn1 (racemic)
> 10		CC(C)N1CCC2(C1)C(=O)N(Cc1ccc(-c3cnn(C)c3)cc1F)c1ccccc12 (racemic)

The next lines start with the compound.

SMILES	EC50 [µM]	pEC50
Cn1cc(-c2cc(F)c(CN3C(=O)C4(CCN(C5CCCC5)C4)c4ccccc43)c(F)c2)cn1 (stereo not drawn)	2.6	
Cn1cc(-c2ccc(CN3C(=O)C4(CCN(C5CCCCC5)C4)c4ccccc43)c(F)c2)cn1 (racemic)	5.2	
CN1CCCC12C(=O)N(Cc1ccc(-c3cnn(C)c3)cc1)c1ccccc12 (stereo not drawn)	> 10	
Cn1cc(-c2ccc(CN3C(=O)C4(CCN(c5ncccn5)C4)c4ccccc43)c(F)c2)cn1 (racemic)	2.5	
Cn1cc(-c2ccc(CN3C(=O)C(=O)c4ccccc43)c(F)c2)cn1		6.22
CN1CCC2(CCN(Cc3ccc(-c4cnn(C)c4)cc3F)C2=O)C1 (stereo not drawn)	> 10	
Cn1cc(-c2ccc(CN3C(=O)C4(CCN(C5CCCC5)C4)c4ccccc43)cc2F)cn1 (stereo not drawn)	2	
Cn1cc(-c2ccc(CN3C(=O)C4(CCN(C(=O)C5CCCCC5)C4)c4ccccc43)c(F)c2)cn1 (racemic)	5	
Cc1nn(C)cc1-c1ccc(CN2C(=O)C3(CCN(C4CCCC4)C3)c3ccccc32)c(F)c1 (stereo not drawn)	3	
Cn1cc(-c2ccc(CN3CC4(OCCO4)c4ccccc43)c(F)c2)cn1	> 10	
Cn1cc(-c2ccc(CN3C(=O)C4(CCN(C5CCCC5)C4)c4ccccc43)c(F)c2F)cn1 (stereo not drawn)	> 10	
Cn1cc(-c2cc(F)c(CN3C(=O)C4(CCN(C5CCCC5)C4)c4ccccc43)cc2F)cn1 (stereo not drawn)	4.1	
Cn1cc(-c2ccc(CN3C(=O)C4(CCN(CC(F)F)C4)c4ccccc43)c(F)c2)cn1 (racemic)	> 10	
Cn1cc(-c2ccc(CN3C(=O)C4(CCCO4)c4ccccc43)cc2)cn1 (stereo not drawn)	> 10	
Cn1cc(-c2ccc(CN3C(=O)C4(CCN(C5CCCCCC5)C4)c4ccccc43)c(F)c2)cn1 (racemic)	7.5	
Cn1cc(-c2ccc(CN3C(=O)C4(CCN(C(=O)C5CCC5)C4)c4ccccc43)c(F)c2)cn1 (racemic)	6.3	
CN1CCC2(CC1)C(=O)N(Cc1ccc(-c3cnn(C)c3)cc1F)c1ccccc12	3.8	
Cn1cc(-c2ccc(CN3C(=O)C4(CCN(C5CCCC5)C4)c4ccccc43)cc2)cn1 (stereo not drawn)	1.8	
Cn1cc(-c2ccc(CN3C(=O)C4(CCNCC4)c4ccccc43)c(F)c2)cn1	> 10	
Cn1cc(-c2ccc(CN3C(=O)C4(CCN(CCF)C4)c4ccccc43)c(F)c2)cn1 (racemic)	4.1	
Cn1cc(-c2ccc(CN3C(=O)C4(OCCO4)c4ccccc43)c(F)c2)cn1	2	

Biological target: T1, Muscarinic acetylcholine receptor M1 (Homo sapiens)
Test: Positive allosteric modulation of human muscarinic M1 receptor at 30 uM

Activity	SMILES
inactive	Cn1cc(-c2ccc(CN3C(=O)C4(CCNC4)c4ccccc43)c(F)c2)cn1 (stereo not drawn)
inactive	Cn1cc(-c2ccc(CN3C(=O)C4(CCN(C(=O)OC(C)(C)C)C4)c4ccccc43)c(F)c2)cn1 (racemic)
inactive	Cn1cc(-c2ccc(CN3C(=O)C4(CCN(CC(F)(F)F)C4)c4ccccc43)c(F)c2)cn1 (racemic)

More lines, now with the values behind:

SMILES	Activity
Cc1nn(C)c(C)c1-c1ccc(CN2C(=O)C3(CCN(C4CCCC4)C3)c3ccccc32)c(F)c1 (stereo not drawn)	inactive
Cn1cc(-c2ccc(CN3C(=O)C4(CCN(c5ccccc5)C4)c4ccccc43)c(F)c2)cn1 (racemic)	inactive
Cn1cc(-c2ccc(CN3C(=O)C4(CCN(C5CCCC5)C4)c4ccccc43)c(F)c2)c(C(F)(F)F)n1 (stereo not drawn)	inactive
Cc1c(-c2ccc(CN3C(=O)C4(CCN(C5CCCC5)C4)c4ccccc43)c(F)c2)cnn1C (stereo not drawn)	inactive
CN1CCCC12C(=O)N(Cc1ccc(Br)cc1)c1ccccc12 (stereo not drawn)	inactive
O=C1N(Cc2ccc(Br)cc2)c2ccccc2C12CCCO2 (stereo not drawn)	inactive
O=C1N(Cc2ccc(Br)cc2)c2ccccc2C12CCCN2 (stereo not drawn)	inactive
C[Si](C)(C)C1COC2(C1)C(=O)N(Cc1ccc(Br)cc1)c1ccccc12 (stereo not drawn)	inactive

Biological target: T1, Muscarinic acetylcholine receptor M1 (Homo sapiens)
Test: Positive allosteric modulation of human muscarinic M1 receptor assessed as leftward fold shift of acetylcholine-induced response at 30 uM relative to acetylcholine

fold change (FC)	SMILES
7.2	CN1CCC2(C1)C(=O)N(Cc1ccc(-c3cnn(C)c3)cc1F)c1ccccc12 (single isomer, unassigned) [listing 1 of 2 here]
8.3	CCN1CCC2(C1)C(=O)N(Cc1ccc(-c3cnn(C)c3)cc1F)c1ccccc12 (racemic)
28	Cn1cc(-c2ccc(CN3C(=O)C4(CCN(C5CCCC5)C4)c4ccccc43)c(F)c2)cn1 (single isomer, unassigned; 19g) [listing 1 of 2 here]
21	CN1CCC2(C1)C(=O)N(Cc1ccc(-c3cnn(C)c3)cc1F)c1ccccc12 (stereo in doubt; 19a) [listing 1 of 2 here]

Further lines, the compound ahead of its results:

SMILES	fold change (FC)
Cn1cc(-c2ccc(CN3C(=O)C4(CCN(c5ncccn5)C4)c4ccccc43)c(F)c2)cn1 (racemic)	17.4
Cn1cc(-c2ccc(CN3C(=O)C(=O)c4ccccc43)c(F)c2)cn1	2.7
Cn1cc(-c2ccc(CN3C(=O)C4(CCN(CC(F)F)C4)c4ccccc43)c(F)c2)cn1 (racemic)	5.9
Cn1cc(-c2ccc(CN3C(=O)C4(CCN(CCF)C4)c4ccccc43)c(F)c2)cn1 (racemic)	13.5
Cn1cc(-c2ccc(CN3C(=O)C4(OCCO4)c4ccccc43)c(F)c2)cn1	27

— ChEMBL document CHEMBL2331354, “Spirocyclic replacements for the isatin in the highly selective, muscarinic M1 PAM ML137: the continued optimization of an MLPCN probe molecule” (Bioorg Med Chem Lett, 2013)
